The values that follow come from ChEMBL document CHEMBL3882731, “Novel sulfonaminoquinoline Hepcidin antagonists” (2014).

What is called IC50 is the concentration that gives 50% inhibition.

In the assay the target is T1, Ferroportin (Homo sapiens, UniProt Q9NP59).
T1 sequence (Q9NP59 whole entry): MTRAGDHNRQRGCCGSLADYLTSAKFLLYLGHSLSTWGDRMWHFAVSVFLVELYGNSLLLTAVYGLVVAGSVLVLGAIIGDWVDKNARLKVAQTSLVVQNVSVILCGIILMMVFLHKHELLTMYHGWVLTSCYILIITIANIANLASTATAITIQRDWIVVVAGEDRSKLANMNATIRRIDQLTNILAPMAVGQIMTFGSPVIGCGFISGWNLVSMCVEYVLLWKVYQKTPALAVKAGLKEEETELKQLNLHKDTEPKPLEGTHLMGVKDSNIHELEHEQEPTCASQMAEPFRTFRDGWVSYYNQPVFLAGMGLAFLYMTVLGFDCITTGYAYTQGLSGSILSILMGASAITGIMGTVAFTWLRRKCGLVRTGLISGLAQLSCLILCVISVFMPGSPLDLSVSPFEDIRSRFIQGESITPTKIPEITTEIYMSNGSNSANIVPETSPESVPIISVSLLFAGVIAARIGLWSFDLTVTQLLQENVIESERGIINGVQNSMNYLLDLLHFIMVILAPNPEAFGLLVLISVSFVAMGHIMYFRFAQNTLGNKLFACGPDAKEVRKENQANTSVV
Briefly: Antagonist activity at C-terminal halo-tag fused human ferroportin expressed in MDCK cells assessed as inhibition of hepcidin-induced ferroportin internalization after overnight incubation by Draq5 staining-based fluorescence assay. Type of assay: cell-based.
Consider `CCc1ccc2cccnc2c1NS(=O)(=O)c1ccccc1`, for which the IC50 was 100 µM.
For `CN1c2c(ccc3cccnc23)-c2ccccc2S1(=O)=O`, the IC50 was determined as 100 µM.
Regarding `Cc1ccccc1S(=O)(=O)Nc1cccc2cccnc12`, the half-maximal inhibitory concentration (IC50) stood at 100 µM.
On to `COc1cc(NS(=O)(=O)Nc2cccc(Cl)c2C)c2ncccc2c1`, for which the half-maximal inhibitory concentration (IC50) was 100 µM.
Take `COc1ccnc2c(NS(=O)(=O)c3ccccc3)cccc12`: the concentration for half-maximal inhibition (IC50) turned out to be 100 µM.
With `COc1ccccc1S(=O)(=O)Nc1cccc2cccnc12` the figure was 100 µM; with `COc1ccc2cccnc2c1NS(=O)(=O)c1ccccc1`, 100 µM.
With `Cc1ccc(S(=O)(=O)Nc2cccc3cc(C)cnc23)c(N)c1`, the 50% inhibitory concentration (IC50) was 100 µM.
The result for `COc1ccc(S(=O)(=O)Nc2cccc3ccc(C)nc23)c(N)c1` reads 100 µM; that for `O=S(=O)(Nc1c(O)ccc2cccnc12)c1ccccc1`, 100 µM.
With `CC(C)c1ccc2cccnc2c1NS(=O)(=O)c1ccccc1` the figure was 100 µM; with `COc1ccc(S(=O)(=O)Nc2cccc3cccnc23)cc1`, 100 µM; with `Cc1cnc2c(NS(=O)(=O)c3ccc(Cl)cc3Cl)cccc2c1`, 100 µM.
For `O=S(=O)(Nc1c(Cl)ccc2cccnc12)c1ccccc1`, the IC50 was determined as 100 µM.
The result for `COc1ccc(S(=O)(=O)Nc2cccc3cccnc23)c(N)c1` reads 100 µM.
With `Cc1ccc2cccnc2c1NS(=O)(=O)c1ccccc1` the figure was 100 µM.
In the case of `Cc1cc(NS(=O)(=O)c2ccccc2)c2ncccc2c1C`, the half-inhibitory concentration (IC50) came to 100 µM.
For `COc1cc(NS(=O)(=O)c2ccc(Cl)cc2Cl)c2ncccc2c1`, the half-maximal inhibitory concentration (IC50) is 100 µM.
`CCOc1cc(NS(=O)(=O)c2ccccc2)c2ncccc2c1`: the IC50 was 100 µM.
On to `O=S(=O)(Nc1cc(Cl)cc2cccnc12)c1ccccc1`, for which the concentration for half-maximal inhibition (IC50) was 100 µM.
`COc1ccnc2c3c(ccc12)-c1ccccc1S(=O)(=O)N3`: the 50% inhibitory concentration (IC50) worked out at 100 µM.
With `CC(=O)Nc1cc(C(F)(F)F)ccc1S(=O)(=O)Nc1cccc2cccnc12` the figure was 100 µM; with `O=S(=O)(Nc1ccc(Cl)c2cccnc12)c1ccc(Cl)cc1Cl`, 100 µM.
The result for `COc1cc(NS(=O)(=O)Nc2c(F)cccc2F)c2ncccc2c1` reads 100 µM; that for `Cc1cccc(Cl)c1S(=O)(=O)Nc1cccc2cccnc12`, 100 µM.
The result for `Nc1cc(C(F)(F)F)ccc1S(=O)(=O)Nc1ccc(Cl)c2cccnc12` reads 100 µM; that for `COc1cc2cccnc2c2c1-c1ccccc1S(=O)(=O)N2`, 100 µM; that for `COC(=O)c1ccnc2c(NS(=O)(=O)c3ccccc3)cccc12`, 50 µM.
As to `O=S(=O)(Nc1ccc(Br)c2cccnc12)c1ccccc1`, the concentration for half-maximal inhibition (IC50) came to 100 µM.
With `O=S(=O)(Nc1cccc2cccnc12)c1c(Cl)cccc1Cl` the figure was 100 µM; with `Cc1c(Cl)cccc1NS(=O)(=O)Nc1ccc(Cl)c2cccnc12`, 100 µM.
Take `Cc1ccc2ccc3c(c2n1)NS(=O)(=O)c1ccccc1-3`: the IC50 was found to be 100 µM.
In the case of `Cc1ccc2cccc(NS(=O)(=O)c3ccccc3N)c2n1`, the IC50 worked out at 100 µM.
The result for `O=S(=O)(Nc1cccc2ccc(Cl)nc12)c1ccccc1` reads 100 µM.
With `Cc1cc(C)c(S(=O)(=O)Nc2c(Cl)cc(Cl)c3cccnc23)c(C)c1` the figure was 100 µM; with `Cc1ccc2cccc(NS(=O)(=O)c3ccccc3)c2n1`, 100 µM; with `Cc1cc(NS(=O)(=O)c2ccccc2)c2ncccc2c1Cl`, 100 µM.
As to `O=[N+]([O-])c1cc(C(F)(F)F)ccc1S(=O)(=O)Nc1cccc2cccnc12`, the half-maximal inhibitory concentration (IC50) was determined as 100 µM.
